Measured values published in patent US20250280843A1, “METHOD FOR INHIBITING POTATOES FROM GREENING AND USE THEREOF” (priority 2024, published 2025).
Read-outs that look alike come from different tables or passages of the source.

Tests used:
[1] = test system: solanine synthesis-related genes; experiment: Gene expression by real-time PCR: solanine synthesis genes; parameters: species or system potato; conditions: during the greening period; vs control
Procedure: Genes related to inhibition of solanine synthesis included StHMGR, StPSS1, StSQE1, StCAS1, StSSR2, StSSR1, StPGA2, StPGA1, StDOX, StGAME6, StPGA3, StGAME12, StSGT1, StSGT2, and StSGT3.
(§1) Total RNA was extracted from frozen potato skins and transformed into cDNA. The expression levels of the aforementioned genes were determined by a Bio-Rad CFX 96 Real-Time PCR System (BIO-RAD, Hercules, CA, USA) and a SYBR Green I Master Mix (Vazyme, Nanjing, Jiangsu, China). Thermocycling conditions included an initial denaturation step at 95° C. for 30 s, followed by 39 cycles of 95° C. for 15 s, then 55° C. for 30 s, and 72° C. for 20 s. Three biological replicates were used, and each replicate was measured for three times. StEF-1a was used as a reference gene for potatoes. Gene expression was calculated by using a 2-ΔCt method.

StPOD42 = experiment: Gene expression by real-time PCR: germination-promoting gene; parameters: species or system potato; conditions: during storage; vs control
Procedure: Germination-promoting genes included StPOD42 (XM_006363284.2).
as §1

potato tubers [2] = experiment: Long-term preservation effect under natural illumination; format: in vivo, potato ("V7"); conditions: for color difference value: natural day/night, 25±1° C.
Procedure: (§2) One group served as a control group (CK) without any subsequent treatment, and contained 50 potatoes. For another group, a carton was provided, in which 50 potatoes were placed. The carton was placed in a controlled atmosphere storage box with a volume of 1,000 L at a temperature controlled at 25° C. and the humidity maintained at 60%. The gas composition in the controlled atmosphere storage box was maintained the same as that of the atmosphere. A space was reserved in the controlled atmosphere storage box. 10 mg of 1-MCP dry powder was weighed into a glass weighing bottle. The weighing bottle containing 1-mcp was placed in the controlled atmosphere storage box, and added with 2 ml of a 1M NaOH solution to release 1-mcp gas from the weighing bottle. The weight of the gas was 10 mg. The potatoes were placed in the gas environment, fumigated for 16 h, taken out and then air-dried for 1 h. The meaning of “fumigation” here was to put the potatoes in a gas environment of 10 mg 1-mcp in a 1,000 L controlled atmosphere storage box, which was equivalent to a concentration of 0.01 milligrams of the 1-mcp gas per liter of gas.
In order to simulate natural illumination, the aforementioned control and treated potatoes were placed in an incubator (fully transparent), and placed under conditions of 25±1° C. and relative humidity of 60% in an outdoor environment. Based on the environment with natural alternation of day and night, the color difference was calculated through instruments. The change in color difference values was measured every 5 days during storage for 2, 3, and 6 months. […] In the 2nd month of storage, the color difference value of the control group was −14, while the test value of the treatment group was −2.2.

[3] = test system: chlorophyll degradation-related genes; experiment: Gene expression by real-time PCR: chlorophyll degradation genes; parameters: species or system potato; conditions: during the greening period; vs control
Procedure: Chlorophyll degradation-related genes included StSGR, StNYC1, StTIC, and StPAO.
as §1

[4] = cited from earlier work
potato tubers [5] = experiment: Determination of solanine content (LC-MS); format: in vivo, potato ("V7"); conditions: vs control
Procedure: (§3) “V7” potatoes were used as experimental materials. They were collected from Dongyu Vegetable Market in Ningbo City, Zhejiang Province. They were freshly picked and transported to the laboratory at room temperature. They were cleaned, and tubers of uniform sizes and free of diseases and insect pests and free of mechanical damages were selected as experimental samples. The samples were divided into two groups, immersed in distilled water for 10 min and then naturally air-dried after the immersion treatment was ended.
One group served as a control group (CK) without any subsequent treatment, and contained 50 potatoes. For another group, a carton was provided, in which 50 potatoes were placed. The carton was placed in a controlled atmosphere storage box with a volume of 1,000 L at a temperature controlled at 25° C. and the humidity maintained at 60%. The gas composition in the controlled atmosphere storage box was maintained the same as that of the atmosphere. A space was reserved in the controlled atmosphere storage box. 10 mg of 1-MCP dry powder was weighed into a glass weighing bottle. The weighing bottle containing 1-mcp was placed in the controlled atmosphere storage box, and added with 2 ml of a 1M NaOH solution to release 1-mcp gas from the weighing bottle. The weight of the gas was 10 mg. The potatoes were placed in the gas environment, fumigated for 16 h, taken out and then air-dried for 1 h. The meaning of “fumigation” here was to put the potatoes in a gas environment of 10 mg 1-mcp in a 1,000 L controlled atmosphere storage box, which was equivalent to a concentration of 0.01 milligrams of the 1-mcp gas per liter of gas. […]
Solanine was mainly composed of solanine and chaconine, with solanidine as aglycone. Therefore, α-solanine and α-chaconine (Sigma-Aldrich, USA) were used as chemical standards for quantification of SGA content. • 1) Liquid chromatography conditions: AgilentEclipsePlusC18 chromatographic column (100 mm×2.1 mm, 1.8 μm); the mobile phase A was 1 mmol/L of an acidified ammonium formate solution, and the mobile phase B was acetonitrile. […]

potato tubers [6] = experiment: Determination of ethylene release amount; format: in vivo, potato ("V7"); conditions: illumination group, entire storage period 12 d; vs control
Procedure: as §3
(§4) One group served as a control group (CK) without any subsequent treatment, and contained 50 potatoes. For another group, a carton was provided, in which 50 potatoes were placed. The carton was placed in a controlled atmosphere storage box with a volume of 1,000 L at a temperature controlled at 25° C. and the humidity maintained at 60%. The gas composition in the controlled atmosphere storage box was maintained the same as that of the atmosphere. A space was reserved in the controlled atmosphere storage box. 10 mg of 1-MCP dry powder was weighed into a glass weighing bottle. […]
4 potato tubers were randomly selected and placed in a sealed container (illumination group). They were placed at respective storage temperatures for 3 h, and then 5 mL of gas was extracted and determined for ethylene content using a Shimadzu type 2014C gas chromatograph (Shimadzu, Japan). […]

potatoes = format: in vivo, potato; conditions: under illumination; specific experimental data omitted
Source text: Ethylene, as a plant hormone that promotes maturity and aging, can be produced by some plants themselves and exists in a certain amount in the storage environment and even in the air. Ethylene binds with a related receptor inside a cell to activate a series of physiological and biochemical reactions related to maturity, thereby accelerating aging and death. 1-MCP can also bind well with an ethylene receptor, but such binding will not cause a biochemical reaction of maturity. Therefore, before the production of endogenous ethylene in a plant or the action of exogenous ethylene, if 1-MCP is applied, it will bind with the ethylene receptor first, thereby preventing the binding of ethylene with the receptor thereof, which greatly prolongs the ripening and aging process of fruits and vegetables and extends the length for preservation. There are many reagents that bind with the ethylene receptor to control the production of ethylene, e.g. aminooxyacetic acid (AOA), salicylic acid (SA), 2,5-norbornadiene (2,5-NBD), silver thiosulfate (STS), and aminooxyvinylglycine (AVG). These reagents are all ethylene inhibitors.

potato tubers [7] = experiment: Determination of chlorophyll content; format: in vivo, potato ("V7"); conditions: illumination group, during storage 12 d; vs control
Procedure: as §3
as §4, with “atmosphere.” for “atmosphere. A space was reserved in the controlled atmosphere storage box. 10 mg of 1-MCP dry powder was weighed into a glass weighing bottle.”
0.2 g of a potato frozen sample (the sample of the illumination group) was taken, grounded into a homogenate with 1.5 mL of 95% (v/v) ethanol in an ice bath, and then centrifuged at a rotational speed of 10.000 r/min for 10 min. The precipitate was discarded, the supernatant was taken, and 95% ethanol was used as a blank group, to determine the absorbance values at 649 nm and 665 nm, respectively. […]

[8] = test system: chlorophyll synthesis-related genes; experiment: Gene expression by real-time PCR: chlorophyll synthesis genes; parameters: species or system potato; conditions: during the greening period; vs control
Procedure: Chlorophyll synthesis-related genes included StHEMA, StGSA, StPBGD, StCPO, StPPO, StCHLD, StCHLI, StCHLH, STCHLHM, StCRD1, StPOR1, StPOR2, StCHLG, and StCHLP.
as §1

potato tubers [9] = experiment: Determination of greening index a* of potato tuber skin after fumigation; format: in vivo, potato ("V7"); conditions: for greening index a*: fumigation 10 mg 1-MCP + NaOH 16 h; for Value of greening index a*: with NaOH
Source text: The method for inhibiting potatoes from greening was: treating potato tubers with 1-MCP, and specifically, fumigating potato tubers with 1-MCP and NaOH.
as §3, §2
Subsequently, the potatoes of the control group (2 groups) and the treatment group (2 groups) were bagged (two groups). The two groups were stored in a constant temperature and humidity chamber at 25±1° C. and relative humidity of 60% for 12 d. One of the groups was an illumination group with an illumination intensity of 10,000 LUX, and the other one was a group with protection from light having an illumination intensity of 0 LUX (in the dark). The tuber skin of the potatoes was taken every 3 d and photographed. The skin was then frozen in liquid nitrogen, and stored at −80° C. for subsequent analysis.
Potato tubers treated for corresponding days were picked out. 6 potatoes were randomly selected from each group. the skin of potato tuber was peeled off, and immediately measured for the color difference with a colorimeter (Shenzhen ThreeNH Technology Co., Ltd., model: NR60CP+), and the a* value was determined and recorded with a […] to indicate the color change of the potato skin. a* was an important parameter for measuring color and lustre. The positive or negative value indicated reddish (positive indicated reddish) or greenish (negative indicated greenish), and the magnitude of the absolute value indicated the degree of reddish or greenish. The colorimeter was calibrated with a standard white plate before determination.
Three groups of experiments were set up. One group was as described in Example 1, in which potato tubers were fumigated with 1-MCP and NaOH, serving as the control group in this experiment. The difference between an experimental group 1 and the control group was that no NaOH solution was used, but an equal volume of water was used. The difference between an experimental group 2 and the control group was that no NaOH solution was used, but an equal volume of anhydrous ethanol was used.
This example employed the method provided in Example 1, and employed 1-MCP and NaOH to fumigate potato tubers, where the dosages of 1-MCP were 1, 5, 10, 15, and 20 mg, respectively. The greening index a* value was determined by the same method as in Example 1.

1-methylcyclopropene [1-MCP]
expression amount of solanine synthesis-related genes [1]: significantly lower than those in the control group
expression of the germination-promoting gene StPOD42 (StPOD42): did not affect the expression
appearance (green spots) (potato tubers [2]; 2nd month of storage): no obvious changes
color difference value (potato tubers [2]; 2nd month of storage): −2.2
germination in appearance (potato tubers [2]; 3 months of storage): a small amount of germination
occurrence of greening (potato tubers [2]; 3 months of storage): no occurrence of greening
color difference value (potato tubers [2]; 3 months of storage): −3.4
germination (potato tubers [2]; 6 months of storage): a small amount of germination
occurrence of greening (potato tubers [2]; 6 months of storage): no occurrence of greening
solanine content (potato tubers [2]; 6 months of storage): maintained within a safe range
color difference value (potato tubers [2]; 6 months of storage): −6.7
expression amount of chlorophyll degradation genes [3]: significantly higher than those in the control group
solubility in solvent ([4]; 3-dichlorotoluene): 2.0 g/L
water solubility ([4]; 20° C.): 137 mg/L
solubility in solvent ([4]; acetone): 2.4 g/L
solubility in solvent ([4]; ethyl acetate): 12.5 g/L
solubility in solvent ([4]; heptane): 2.5 g/L
solubility in solvent ([4]; methanol): 11.25 g/L
solubility in solvent ([4]; xylene): 2.3 g/L
solanine content (potato tubers [5]; during storage, dark or light): increased very slowly
α-chaconine content (potato tubers [5]; starting from the 3rd day): significantly different from those in the control group
α-solanine content (potato tubers [5]; starting from the 3rd day): significantly different from those in the control group
ethylene release amount (potato tubers [6]): always lower than that of the control group
effect on greening of potatoes (potatoes): significantly inhibit potatoes from greening
chlorophyll content (potato tubers [7]): increased slowly compared with the control group
expression amount of chlorophyll synthesis-related genes [8]: significantly lower than those in the control group
greening index a*: fumigation with NaOH compared with equal volume of water or ethanol (potato tubers [9]; Example 3, 1-MCP released with NaOH solution vs water vs anhydrous ethanol): significantly improve the effect of 1-MCP in inhibiting greening
greening index a* (potato tubers [9]; dark (0 LUX), 6th day of storage): basically no greening
Value of greening index a* (potato tubers [9]; dosage of 1-MCP 1 mg, storage 12 d): −3.2
Value of greening index a* (potato tubers [9]; dosage of 1-MCP 5 mg, storage 12 d): −2.1
Value of greening index a* (potato tubers [9]; dosage of 1-MCP 10 mg, storage 12 d): −1.2
Value of greening index a* (potato tubers [9]; dosage of 1-MCP 15 mg, storage 12 d): −1.8
Value of greening index a* (potato tubers [9]; dosage of 1-MCP 20 mg, storage 12 d): −2.6
greening index a* (potato tubers [9]; illumination 10,000 LUX, 25±1° C., storage 12 d, vs control): still remained at a relatively high level

C1=CC2C=CC1C2 [2,5-norbornadiene]
effect on greening of potatoes (potatoes): accelerate the greening progress

NOCC(=O)O [aminooxyacetic acid]
effect on greening of potatoes (potatoes): will not inhibit the potatoes from greening

O=C(O)c1ccccc1O [salicylic acid]
effect on greening of potatoes (potatoes): accelerate the greening progress

silver thiosulfate
effect on greening of potatoes (potatoes): will not inhibit the potatoes from greening
